Data as given in PMC4532999 (Scientific Reports, 2015).
Positions of bridges follow the written chain, without caps; N, C: chain ends. Residues, ends and D or L forms follow the SMILES beside them.

Legend:
HeLa cells = test system: HeLa cells
Procedure: Since BCR-ABL localizes predominantly in the cytoplasm, it is important to evaluate whether the designed peptides can be internalized into cells.
Human cervical cancer cells (HeLa) were seeded in 175-cm^2 tissue culture flasks (Falcon), in Dulbecco’s Modified Eagle’s Medium (DMEM) supplemented with 10% fetal bovine serum, 100 U/mL penicillin and […] streptomycin, until 80% confluent.
Cytotoxicity of the MTAbl peptides towards HeLa cells was evaluated before the cell internalization assay. The mammalian cell cytotoxicity assay was conducted using a method described earlier. HeLa cells were seeded the day before the assay in 96-well tissue culture-treated plates (2.5 × 10^3 cells/well). […] Peptide solutions were diluted 10-fold with serum-free medium and incubated with cells in triplicates for 2 h. […] Following incubation the peptide solutions were removed and aliquots of 10 μL of 0.02% (w/v) sterile resazurin (resazurin sodium salt, Sigma) were added to each well containing 100 μL of fresh medium. […] The absorbance of the plates was measured on a plate reader at 540 and 620 nm.

Serum stability assay = details: for stability in human serum (in words; comparison to MCoTI-II at 24 h): 100% human serum, 37 °C, one-way ANOVA, three replicates; for remaining at 24 h, 30 μM: male, human, serum
Procedure: All peptides were tested at a final concentration of 30 μM in 100% human serum. […] Reactions were stopped at the stipulated times and the serum proteins in each sample were denatured and precipitated, followed by centrifugation at 17,000 g for 10 min to separate the serum proteins from peptide samples. […] The elution time for each peptide was determined by the PBS control from 0 time point. The percentage of peptide remaining at each time point was calculated using the height of the serum-treated peptide peak from time 0 as 100% recovery.

Abl kinase = Abl kinase (Homo sapiens, UniProt P00519); assay: BacKin assay, inhibition of phosphorylation of abltide displayed on E. coli; format: biochemical; details: 32 μM peptide, Abl kinase 0.2 U/mL, 37 °C, 30 min
[1] = 100% human male AB serum (Sigma); details: 37 °C, up to 24 h

Chain of Abl kinase (P00519 whole entry): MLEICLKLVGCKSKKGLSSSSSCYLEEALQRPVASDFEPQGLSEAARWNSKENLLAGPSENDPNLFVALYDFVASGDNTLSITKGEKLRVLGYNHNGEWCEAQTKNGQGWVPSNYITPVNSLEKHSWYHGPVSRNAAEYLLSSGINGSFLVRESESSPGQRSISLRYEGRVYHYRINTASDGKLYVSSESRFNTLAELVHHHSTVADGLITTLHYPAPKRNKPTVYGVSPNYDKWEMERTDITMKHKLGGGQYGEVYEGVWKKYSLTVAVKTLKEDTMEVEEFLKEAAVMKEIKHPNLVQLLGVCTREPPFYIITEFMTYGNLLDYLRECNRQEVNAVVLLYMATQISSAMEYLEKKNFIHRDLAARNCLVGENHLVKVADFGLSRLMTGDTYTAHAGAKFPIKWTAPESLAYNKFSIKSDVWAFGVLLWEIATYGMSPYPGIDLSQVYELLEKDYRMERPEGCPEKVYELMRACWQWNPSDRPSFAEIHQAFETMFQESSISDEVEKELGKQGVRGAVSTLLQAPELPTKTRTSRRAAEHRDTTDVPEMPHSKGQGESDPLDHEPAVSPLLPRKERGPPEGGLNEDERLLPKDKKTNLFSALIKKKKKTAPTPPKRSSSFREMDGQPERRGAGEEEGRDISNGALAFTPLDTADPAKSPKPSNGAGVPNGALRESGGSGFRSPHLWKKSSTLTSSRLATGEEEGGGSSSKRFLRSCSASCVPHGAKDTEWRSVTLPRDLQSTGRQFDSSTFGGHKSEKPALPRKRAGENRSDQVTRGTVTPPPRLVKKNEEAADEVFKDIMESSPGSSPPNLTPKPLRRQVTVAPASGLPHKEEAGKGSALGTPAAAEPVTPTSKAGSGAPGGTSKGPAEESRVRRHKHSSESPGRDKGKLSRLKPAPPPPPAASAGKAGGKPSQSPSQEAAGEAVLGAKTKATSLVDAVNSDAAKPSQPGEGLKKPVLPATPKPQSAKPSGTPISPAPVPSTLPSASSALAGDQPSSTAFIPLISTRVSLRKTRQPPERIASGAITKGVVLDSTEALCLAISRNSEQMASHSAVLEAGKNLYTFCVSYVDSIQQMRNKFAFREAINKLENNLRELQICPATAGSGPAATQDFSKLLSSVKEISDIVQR

| fragment found [1] | Compound | concentration up to which no cytotoxicity towards HeLa cells (HeLa cells) [µM] | stability in human serum (in words; comparison to MCoTI-II at 24 h) (Serum stability assay) | remaining at 24 h, 30 μM (Serum stability assay) [%] | percentage of Abl kinase inhibition (Abl kinase) |
| --- | --- | --- | --- | --- | --- |
|  | CC[C@H](C)[C@@H]1NC(=O)[C@H](C)NC(=O)[C@H](CCC(=O)O)NC(=O)[C@@H]2CSSC[C@@H]3NC(=O)[C@H](C)NC(=O)CNC(=O)[C@@H]4CCCN4C(=O)[C@@H]4CSSC[C@H](NC(=O)[C@H](Cc5ccc(O)cc5)NC(=O)CNC(=O)[C@H](CC(N)=O)NC(=O)CNC(=O)[C@H](CCCNC(=N)N)NC(=O)[C@H](CSSC[C@H](NC(=O)[C@H](CCCCN)NC(=O)[C@@H]5CCCN5C(=O)[C@H](C)NC(=O)[C@H](C)NC(=O)[C@H](Cc5ccc(O)cc5)NC1=O)C(=O)N[C@@H](CCCNC(=N)N)C(=O)N[C@@H](CCCNC(=N)N)C(=O)N[C@@H](CC(=O)O)C(=O)N[C@@H](CO)C(=O)N[C@@H](CC(=O)O)C(=O)N4)NC(=O)[C@H]([C@@H](C)CC)NC3=O)C(=O)NCC(=O)N[C@@H](CO)C(=O)NCC(=O)N[C@@H](CO)C(=O)N[C@@H](CC(=O)O)C(=O)NCC(=O)NCC(=O)N[C@@H](C(C)C)C(=O)N2 [MTAbl09] (cyclo(AAPKCRRDSDCPGACICRGNGYCGSGSDGGVCEAIY); disulfide 5-17, 11-23, 15-32) | > 64 | statistically more stable than MCoTI-II | > 75 |  |
|  | CC[C@H](C)[C@@H]1NC(=O)[C@H](C)NC(=O)[C@H](CCC(=O)O)NC(=O)CNC(=O)[C@@H]2CSSC[C@@H]3NC(=O)[C@H](CC(=O)O)NC(=O)[C@H](CO)NC(=O)[C@H](CC(=O)O)NC(=O)[C@H](CCCNC(=N)N)NC(=O)[C@H](CCCNC(=N)N)NC(=O)[C@@H]4CSSC[C@H](NC(=O)[C@H]([C@@H](C)CC)NC(=O)[C@H](CSSC[C@H](NC(=O)[C@H](CCCNC(=N)N)NC(=O)[C@H](C)NC(=O)[C@H](Cc5ccccc5)NC(=O)[C@@H]5CCCN5C(=O)[C@H](C)NC(=O)[C@H](C)NC(=O)[C@H](Cc5ccc(O)cc5)NC1=O)C(=O)N[C@@H](CCC(=O)O)C(=O)N[C@@H](C)C(=O)N[C@@H]([C@@H](C)CC)C(=O)N[C@@H](Cc1ccc(O)cc1)C(=O)N[C@@H](C)C(=O)N[C@@H](C)C(=O)N1CCC[C@H]1C(=O)N[C@@H](CCCCN)C(=O)N4)NC(=O)[C@H](C)NC(=O)CNC(=O)[C@@H]1CCCN1C3=O)C(=O)N[C@@H](CCCNC(=N)N)C(=O)NCC(=O)N[C@@H](CC(N)=O)C(=O)NCC(=O)N[C@@H](Cc1ccc(O)cc1)C(=O)N2 [MTAbl13] (cyclo(AAPFARCEAIYAAPKCRRDSDCPGACICRGNGYCGEAIY); disulfide 7-26, 16-28, 22-34) | > 64 | statistically more stable than MCoTI-II | > 75 |  |
|  | CC[C@H](C)[C@@H]1NC(=O)[C@H](C)NC(=O)[C@H](CCC(=O)O)NC(=O)CNC(=O)[C@@H]2CSSC[C@@H]3NC(=O)[C@H](CC(=O)O)NC(=O)[C@H](CO)NC(=O)[C@H](CC(=O)O)NC(=O)[C@H](CCCNC(=N)N)NC(=O)[C@H](CCCNC(=N)N)NC(=O)[C@@H]4CSSC[C@H](NC(=O)[C@H]([C@@H](C)CC)NC(=O)[C@H](CSSC[C@H](NC(=O)[C@H](CCCNC(=N)N)NC(=O)[C@H](CCCNC(=N)N)NC(=O)[C@H](CCCNC(=N)N)NC(=O)[C@H](C)NC(=O)[C@H](Cc5ccccc5)NC(=O)[C@@H]5CCCN5C(=O)[C@H](C)NC(=O)[C@H](C)NC(=O)[C@H](Cc5ccc(O)cc5)NC1=O)C(=O)N1CCC[C@H]1C(=O)N[C@@H](CCCCN)C(=O)N[C@@H]([C@@H](C)CC)C(=O)N[C@@H](CC(C)C)C(=O)N[C@@H](CCCCN)C(=O)N[C@@H](CCCCN)C(=O)N4)NC(=O)[C@H](C)NC(=O)CNC(=O)[C@@H]1CCCN1C3=O)C(=O)N[C@@H](CCCNC(=N)N)C(=O)NCC(=O)N[C@@H](CC(N)=O)C(=O)NCC(=O)N[C@@H](Cc1ccc(O)cc1)C(=O)N2 [MTAbl07] (cyclo(AAPFARRRCPKILKKCRRDSDCPGACICRGNGYCGEAIY); disulfide 9-26, 16-28, 22-34) | > 64 | as stable as MCoTI-II | > 75 |  |
|  | CC[C@H](C)[C@@H]1NC(=O)[C@H](C)NC(=O)[C@H](CCC(=O)O)NC(=O)CNC(=O)[C@@H]2CSSC[C@@H]3NC(=O)[C@H](CC(=O)O)NC(=O)[C@H](CO)NC(=O)[C@H](CC(=O)O)NC(=O)[C@H](CCCNC(=N)N)NC(=O)[C@H](CCCNC(=N)N)NC(=O)[C@@H]4CSSC[C@H](NC(=O)[C@H]([C@@H](C)CC)NC(=O)[C@H](CSSC[C@H](NC(=O)[C@H](CCCNC(=N)N)NC(=O)[C@H](C)NC(=O)[C@H](Cc5ccccc5)NC(=O)[C@@H]5CCCN5C(=O)[C@H](C)NC(=O)[C@H](C)NC(=O)[C@H](Cc5ccc(O)cc5)NC1=O)C(=O)N1CCC[C@H]1C(=O)N[C@@H](CCCCN)C(=O)N[C@@H]([C@@H](C)CC)C(=O)N[C@@H](CC(C)C)C(=O)N[C@@H](CCCCN)C(=O)N[C@@H](CCCCN)C(=O)N4)NC(=O)[C@H](C)NC(=O)CNC(=O)[C@@H]1CCCN1C3=O)C(=O)N[C@@H](CCCNC(=N)N)C(=O)NCC(=O)N[C@@H](CC(N)=O)C(=O)NCC(=O)N[C@@H](Cc1ccc(O)cc1)C(=O)N2 [MTAbl06] (cyclo(AAPFARCPKILKKCRRDSDCPGACICRGNGYCGEAIY); disulfide 7-24, 14-26, 20-32) | > 64 |  | > 75 | ~ 90% |
| MTAbl06 (i.e. dephosphorylated MTAbl12) | CPKILKKCRRDSDCPGACICRGNGYCGEAIY*AAPFAR |  |  |  |  |
|  | CC[C@H](C)[C@@H]1NC(=O)[C@H](C)NC(=O)[C@H](CCC(=O)O)NC(=O)CNC(=O)[C@@H]2CSSC[C@@H]3NC(=O)[C@H](CC(=O)O)NC(=O)[C@H](CO)NC(=O)[C@H](CC(=O)O)NC(=O)[C@H](CCCNC(=N)N)NC(=O)[C@H](CCCNC(=N)N)NC(=O)[C@@H]4CSSC[C@H](NC(=O)[C@H]([C@@H](C)CC)NC(=O)[C@H](CSSC[C@H](NC(=O)[C@H](CCCNC(=N)N)NC(=O)[C@H](CCCNC(=N)N)NC(=O)[C@H](CCCNC(=N)N)NC(=O)[C@H](C)NC(=O)[C@H](Cc5ccccc5)NC(=O)[C@@H]5CCCN5C(=O)[C@H](C)NC(=O)[C@H](C)NC(=O)[C@H](Cc5ccc(O)cc5)NC1=O)C(=O)N1CCC[C@H]1C(=O)N[C@@H](CCCNC(=N)N)C(=O)N[C@@H]([C@@H](C)CC)C(=O)N[C@@H](CC(C)C)C(=O)N[C@@H](CCCNC(=N)N)C(=O)N[C@@H](CCCCN)C(=O)N4)NC(=O)[C@H](C)NC(=O)CNC(=O)[C@@H]1CCCN1C3=O)C(=O)N[C@@H](CCCNC(=N)N)C(=O)NCC(=O)N[C@@H](CC(N)=O)C(=O)NCC(=O)N[C@@H](Cc1ccc(O)cc1)C(=O)N2 [MTAbl15] (cyclo(AAPFARRRCPRILRKCRRDSDCPGACICRGNGYCGEAIY); disulfide 9-26, 16-28, 22-34) | > 64 |  |  |  |
